Values joined by “and” are separate entries in the source; they are usually repeats but may differ in a detail not shown here. Equal values may be shown once. Records with an inconclusive call do not appear.
Tested on: mice, P1798 lymphosarcoma sc, survival or tumor weight T/C
Test: NCI In Vivo Anticancer Drug Screen. Data for tumor model P1798 Lymphosarcoma (subcutaneous) in unknown mice
Description: The antitumor activity of compounds was measured in mice bearing transplantable tumors. Survival or tumor size were measured and the results are expressed as the measurement made in the treated group (T) divided by the measurement made in the vehicle treated control group (C). The tumor model used in this assay is P1798 Lymphosarcoma (subcutaneous) in unknown mice

[1] = endpoint: mean tumor weight, dose: 5.0 mg/kg/injection, schedule: Q01DX010 (ip), vehicle: saline, higher = larger tumour

CN(Cc1cnc2nc(N)nc(N)c2n1)c1ccc(C(=O)N[C@@H](CCC(=O)O)C(=O)O)cc1
T/C (endpoint: mean tumor weight, dose: 0.15 mg/kg/injection, schedule: Q01DX010 (ip), vehicle: other, higher = larger tumour): 79 % of control and 101 % of control
T/C (endpoint: mean tumor weight, dose: 0.16 mg/kg/injection, schedule: Q01DX010 (ip), vehicle: other, higher = larger tumour): 118 % of control
T/C (endpoint: mean tumor weight, dose: 0.39 mg/kg/injection, schedule: Q01DX010 (sc), vehicle: other, higher = larger tumour): 28 % of control
T/C (endpoint: mean tumor weight, dose: 0.5 mg/kg/injection, schedule: Q01DX011 (ip), vehicle: carboxymethylcellulose (CMC), higher = larger tumour): 33 % of control
T/C (endpoint: mean tumor weight, dose: 0.65 mg/kg/injection, schedule: Q01DX010 (sc), vehicle: other, higher = larger tumour): 50 % of control
T/C (endpoint: mean tumor weight, dose: 1.0 mg/kg/injection, schedule: Q01DX011 (ip), vehicle: carboxymethylcellulose (CMC), higher = larger tumour): 1 % of control
T/C (endpoint: mean tumor weight, dose: 1.08 mg/kg/injection, schedule: Q01DX010 (sc), vehicle: other, higher = larger tumour): 18 % of control
T/C (endpoint: mean tumor weight, dose: 11.0 mg/kg/injection, schedule: Q01DX001 (ip), vehicle: carboxymethylcellulose (CMC), higher = larger tumour): 78 % of control
T/C (endpoint: mean tumor weight, dose: 22.0 mg/kg/injection, schedule: Q01DX001 (ip), vehicle: carboxymethylcellulose (CMC), higher = larger tumour): 74 % of control
T/C (endpoint: mean tumor weight, dose: 43.0 mg/kg/injection, schedule: Q01DX001 (ip), vehicle: carboxymethylcellulose (CMC), higher = larger tumour): 44 % of control
T/C (endpoint: median survival time, dose: 0.31 mg/kg/injection, schedule: Q01DX010 (ip), vehicle: sodium bicarbonate, higher = longer survival): 101 % of control
T/C (endpoint: median survival time, dose: 0.62 mg/kg/injection, schedule: Q01DX010 (ip), vehicle: sodium bicarbonate, higher = longer survival): 103 % of control
T/C (endpoint: median survival time, dose: 0.63 mg/kg/injection, schedule: Q01DX010 (ip), vehicle: sodium bicarbonate, higher = longer survival): 103 % of control
T/C (endpoint: median survival time, dose: 1.25 mg/kg/injection, schedule: Q01DX010 (ip), vehicle: sodium bicarbonate, higher = longer survival): 113 % of control
T/C (endpoint: median survival time, dose: 2.5 mg/kg/injection, schedule: Q01DX010 (ip), vehicle: sodium bicarbonate, higher = longer survival): 33 % of control
T/C (endpoint: median survival time, dose: 4.0 mg/kg/injection, schedule: Q04DX007 (ip), vehicle: sodium bicarbonate, higher = longer survival): 76 % of control
T/C (endpoint: median survival time, dose: 5.0 mg/kg/injection, schedule: Q01DX010 (ip), vehicle: sodium bicarbonate, higher = longer survival): 37 % of control
T/C (endpoint: median survival time, dose: 8.0 mg/kg/injection, schedule: Q04DX007 (ip), vehicle: sodium bicarbonate, higher = longer survival): 76 % of control
T/C (endpoint: median survival time, dose: 16.0 mg/kg/injection, schedule: Q04DX007 (ip), vehicle: saline, higher = longer survival): 161 % of control
T/C (endpoint: median survival time, dose: 16.0 mg/kg/injection, schedule: Q04DX007 (ip), vehicle: sodium bicarbonate, higher = longer survival): 74 % of control
T/C (endpoint: median survival time, dose: 32.0 mg/kg/injection, schedule: Q04DX007 (ip), vehicle: saline, higher = longer survival): 170 % of control
T/C (endpoint: median survival time, dose: 32.0 mg/kg/injection, schedule: Q04DX007 (ip), vehicle: sodium bicarbonate, higher = longer survival): 29 % of control
T/C (endpoint: median survival time, dose: 64.0 mg/kg/injection, schedule: Q04DX007 (ip), vehicle: sodium bicarbonate, higher = longer survival): 25 % of control

N=[N+]=CC(=O)OCC(N)C(=O)O (stereo not drawn)
T/C (endpoint: mean tumor weight, dose: 1.25 mg/kg/injection, schedule: Q01DX010 (ip), vehicle: saline, higher = larger tumour): 98 % of control
T/C (endpoint: mean tumor weight, dose: 2.5 mg/kg/injection, schedule: Q01DX010 (ip), vehicle: saline, higher = larger tumour): 56 % of control
T/C [1]: 17 % of control and 24 % of control

CC[C@]1(O)C[C@H]2CN(CCc3c([nH]c4ccccc34)[C@@](C(=O)OC)(c3cc4c(cc3OC)N(C=O)[C@H]3[C@@](O)(C(=O)OC)[C@H](OC(C)=O)[C@]5(CC)C=CCN6CC[C@]43[C@@H]65)C2)C1
T/C (endpoint: mean tumor weight, dose: 0.01 mg/kg/injection, schedule: Q01DX010 (ip), vehicle: water, higher = larger tumour): 105 % of control
T/C (endpoint: mean tumor weight, dose: 0.03 mg/kg/injection, schedule: Q01DX010 (ip), vehicle: water, higher = larger tumour): 105 % of control
T/C (endpoint: mean tumor weight, dose: 0.1 mg/kg/injection, schedule: Q01DX001 (ip), vehicle: saline, higher = larger tumour): 120 % of control
T/C (endpoint: mean tumor weight, dose: 0.3 mg/kg/injection, schedule: Q01DX001 (ip), vehicle: saline, higher = larger tumour): 45 % of control
T/C (endpoint: mean tumor weight, dose: 0.5 mg/kg/injection, schedule: Q01DX001 (ip), vehicle: saline, higher = larger tumour): 40 % of control
T/C (endpoint: mean tumor weight, dose: 0.68 mg/kg/injection, schedule: Q01DX001 (ip), vehicle: saline, higher = larger tumour): 10 % of control
T/C (endpoint: mean tumor weight, dose: 0.7 mg/kg/injection, schedule: Q01DX001 (ip), vehicle: saline, higher = larger tumour): 36 % of control
T/C (endpoint: mean tumor weight, dose: 1.35 mg/kg/injection, schedule: Q01DX001 (ip), vehicle: saline, higher = larger tumour): 3 % of control
T/C (endpoint: mean tumor weight, dose: 125.0 micrograms/kg/injection, schedule: Q01DX010 (ip), vehicle: water, higher = larger tumour): 16 % of control

O=c1[nH]cc(F)c(=O)[nH]1
T/C (endpoint: mean tumor weight, dose: 2.0 mg/kg/injection, schedule: Q01DX010 (ip), vehicle: saline, higher = larger tumour): 119 % of control
T/C (endpoint: mean tumor weight, dose: 2.5 mg/kg/injection, schedule: Q01DX015 (ip), vehicle: carboxymethylcellulose (CMC), higher = larger tumour): 108 % of control
T/C [1]: 36 % of control
T/C (endpoint: mean tumor weight, dose: 6.3 mg/kg/injection, schedule: Q01DX010 (ip), vehicle: saline, higher = larger tumour): 44 % of control
T/C (endpoint: mean tumor weight, dose: 10.0 mg/kg/injection, schedule: Q01DX015 (ip), vehicle: carboxymethylcellulose (CMC), higher = larger tumour): 119 % of control
T/C (endpoint: mean tumor weight, dose: 12.5 mg/kg/injection, schedule: Q01DX010 (ip), vehicle: saline, higher = larger tumour): 27 % of control
T/C (endpoint: mean tumor weight, dose: 40.0 mg/kg/injection, schedule: Q01DX001 (ip), vehicle: carboxymethylcellulose (CMC), higher = larger tumour): 71 % of control
T/C (endpoint: mean tumor weight, dose: 80.0 mg/kg/injection, schedule: Q01DX001 (ip), vehicle: carboxymethylcellulose (CMC), higher = larger tumour): 69 % of control
T/C (endpoint: median survival time, dose: 5.0 mg/kg/injection, schedule: Q01DX010 (ip), vehicle: saline, higher = longer survival): 97 % of control and 103 % of control (2×)
T/C (endpoint: median survival time, dose: 10.0 mg/kg/injection, schedule: Q01DX010 (ip), vehicle: saline, higher = longer survival): 117 % of control (2×) and 103 % of control
T/C (endpoint: median survival time, dose: 20.0 mg/kg/injection, schedule: Q01DX010 (ip), vehicle: saline, higher = longer survival): 116 % of control and 39 % of control
T/C (endpoint: median survival time, dose: 40.0 mg/kg/injection, schedule: Q01DX010 (ip), vehicle: saline, higher = longer survival): 24 % of control and 28 % of control
T/C (endpoint: median survival time, dose: 80.0 mg/kg/injection, schedule: Q01DX010 (ip), vehicle: saline, higher = longer survival): 26 % of control

CCCCCCCCCCCCCCCCC(C(=O)O)C(O)(CC(=O)O)C(=O)O (stereo not drawn)
T/C (endpoint: mean tumor weight, dose: 12.5 mg/kg/injection, schedule: Q01DX010 (ip), vehicle: carboxymethylcellulose (CMC), higher = larger tumour): 84 % of control
T/C (endpoint: mean tumor weight, dose: 25.0 mg/kg/injection, schedule: Q01DX010 (ip), vehicle: carboxymethylcellulose (CMC), higher = larger tumour): 87 % of control

C[C@@H]1C[C@H]2CC[C@H](O2)[C@H](C)C(=O)O[C@@H](C)C[C@@H]2CC[C@@H](O2)[C@@H](C)C(=O)O[C@H](C)C[C@H]2CC[C@H](O2)[C@H](C)C(=O)O[C@@H](C)C[C@@H]2CC[C@@H](O2)[C@@H](C)C(=O)O1
T/C (endpoint: mean tumor weight, dose: 45.0 mg/kg/injection, schedule: Q01DX011 (ip), vehicle: other, higher = larger tumour): 93 % of control
T/C (endpoint: mean tumor weight, dose: 90.0 mg/kg/injection, schedule: Q01DX011 (ip), vehicle: other, higher = larger tumour): 89 % of control
T/C (endpoint: mean tumor weight, dose: 180.0 mg/kg/injection, schedule: Q01DX011 (ip), vehicle: other, higher = larger tumour): 83 % of control
T/C (endpoint: mean tumor weight, dose: 360.0 mg/kg/injection, schedule: Q01DX011 (ip), vehicle: other, higher = larger tumour): 61 % of control

Clc1ncnc2nc[nH]c12
T/C (endpoint: mean tumor weight, dose: 31.25 mg/kg/injection, schedule: Q01DX010 (ip), vehicle: carboxymethylcellulose (CMC), higher = larger tumour): 106 % of control
T/C (endpoint: mean tumor weight, dose: 62.5 mg/kg/injection, schedule: Q01DX010 (ip), vehicle: carboxymethylcellulose (CMC), higher = larger tumour): 95 % of control
T/C (endpoint: mean tumor weight, dose: 125.0 mg/kg/injection, schedule: Q01DX010 (ip), vehicle: carboxymethylcellulose (CMC), higher = larger tumour): 92 % of control
T/C (endpoint: mean tumor weight, dose: 250.0 mg/kg/injection, schedule: Q01DX010 (ip), vehicle: carboxymethylcellulose (CMC), higher = larger tumour): 79 % of control
